Data taken from BindingDB's records for doi:10.7270/Q2TX3CTT (Broad Institute, 2010).
pEC50: −log10 of the molar value.

Target: Glycogen synthase kinase-3 beta (Homo sapiens, UniProt P49841)
Assay: concentration-response blocking of human GSK3B – biochemical, luminescence, cell-free homogeneous, retest, dose response (AID 434954)

Chain of Glycogen synthase kinase-3 beta (P49841 whole entry): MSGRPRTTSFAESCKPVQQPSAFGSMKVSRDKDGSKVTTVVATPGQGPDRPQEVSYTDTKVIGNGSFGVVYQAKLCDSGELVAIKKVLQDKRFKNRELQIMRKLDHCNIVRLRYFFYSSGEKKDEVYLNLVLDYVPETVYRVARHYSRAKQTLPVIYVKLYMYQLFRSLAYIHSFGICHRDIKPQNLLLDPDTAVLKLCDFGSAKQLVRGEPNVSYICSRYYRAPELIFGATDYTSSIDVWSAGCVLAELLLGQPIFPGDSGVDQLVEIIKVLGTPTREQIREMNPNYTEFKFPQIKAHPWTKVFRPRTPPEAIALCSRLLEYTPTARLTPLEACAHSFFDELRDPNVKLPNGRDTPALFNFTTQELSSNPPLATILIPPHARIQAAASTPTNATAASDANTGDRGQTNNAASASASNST

SMILES	pEC50
COCCN(CC(=O)NCc1ccc(F)cc1)C(=O)CCC(=O)Nc1ccccn1	< 3.52
O=C1NC(c2ccncc2)Nc2sc3c(c21)CCCC3 (configuration not stated)	< 3.52
CN(C)Cc1ccc(-c2nc3cccc4c3n2CCNC4=O)cc1	4.56
Nc1nonc1-n1nnc(C(=O)NN=Cc2c(F)cccc2Cl)c1-c1ccc2c(c1)OCO2 [1-(4-amino-1,2,5-oxadiazol-3-yl)-5-(1,3-benzodioxol-5-yl)-N-[(2-chloro-6-fluorophenyl)methylideneamino]-4-triazolecarboxamide]	5.80
COc1cc(NC(=S)Nc2ccccn2)c(OC)cc1Cl [1-(4-chloranyl-2,5-dimethoxy-phenyl)-3-pyridin-2-yl-thiourea]	4.91
CC(=O)NCC1COc2ccccc2O1 (configuration not stated) [N-(2,3-dihydro-1,4-benzodioxin-3-ylmethyl)ethanamide]	< 3.52
COC(=O)c1c(N)c(C#N)c2n1CCCCC2 [methyl 2-amino-1-cyano-6,7,8,9-tetrahydro-5H-pyrrolo[1,2-a]azepine-3-carboxylate]	< 3.52
Oc1cccc(Nc2nc(-c3ccccc3)nc3ccccc23)c1	< 3.52
Nc1nc(NCC2CCCO2)nc(Nc2ccccc2)c1[N+](=O)[O-] (configuration not stated) [5-nitro-2-N-(oxolan-2-ylmethyl)-4-N-phenylpyrimidine-2,4,6-triamine]	5.66
CN(C)Cc1c(C(=O)NN=CCCc2ccccc2)nnn1-c1nonc1N	4.66
OCCCNc1cc(-c2ccnc(Nc3cccc(Cl)c3)n2)ccn1	6.67
c1ccc(Nc2nc(-c3ccccc3)nc3ccccc23)cc1 [N,2-diphenylquinazolin-4-amine]	< 3.52
COc1ccc(C(C)=NNC(=O)CNC(=O)Cc2ccccc2)c(OC)c1 [N-[2-[2-[1-(2,4-dimethoxyphenyl)ethylidene]hydrazinyl]-2-oxoethyl]-2-phenylacetamide]	< 3.52
CC(=O)Oc1cc(C)cc2oc(=O)cc(-c3ccccc3)c12	< 3.52
O=c1c(O)c(-c2ccc(O)c(O)c2)oc2cc(O)cc(O)c12 [2-(3,4-dihydroxyphenyl)-3,5,7-trihydroxy-chromone;hydrate]	5.00
CCN(CC)C(=O)Cn1cc(C(=O)C(=O)Nc2ccc3c(c2)OCCO3)c2ccccc21	< 3.52
O=C(C1CCCN(S(=O)(=O)c2ccccc2)C1)N1CCN(c2ncccn2)CC1 (configuration not stated) [[1-(phenylsulfonyl)piperidin-3-yl]-(4-pyrimidin-2-ylpiperazin-1-yl)methanone]	< 3.52
c1ccc(CSc2nnc(-c3cccnc3)o2)cc1 [3-(5-Benzylsulfanyl-[1,3,4]oxadiazol-2-yl)-pyridine]	< 3.52
O=C(Nc1ccccc1Cl)N1CCSc2ccccc21 [N-(2-chlorophenyl)-2,3-dihydro-4H-1,4-benzothiazine-4-carboxamide]	< 3.52
COc1cccc(C(N)=O)c1	< 3.52
O=C(CN1C(=O)CCC1=O)Nc1ccc(Br)cc1 [N-(4-bromophenyl)-2-(2,5-dioxo-1-pyrrolidinyl)acetamide]	< 3.52
C=CCOc1ccc(CN=Nc2ccccn2)cc1OC [N-[(3-methoxy-4-prop-2-enoxyphenyl)methylideneamino]pyridin-2-amine]	< 3.52
Nc1nc(NCc2ccco2)nc(NCCO)c1[N+](=O)[O-]	< 3.52

SMILES	pEC50
Cc1cccc(Nc2ccccc2C(=O)O)c1C	< 3.52
O=C(Nc1ccncc1)Nc1ccncc1 [1,3-bis(4-pyridyl)urea]	< 3.52
CCOC(=O)c1cnc2ccc(C(=O)OC)cc2c1Nc1ccc2c(c1)OCCO2 [4-(2,3-Dihydro-benzo[1,4]dioxin-6-ylamino)-quinoline-3,6-dicarboxylic acid 3-ethyl ester 6-methyl ester]	5.04
COc1cc2c(cc1O)C[C@H]1NCCc3cc4c(c-2c31)OCO4 [SMR000156298]	4.79
CCN1CCN(c2c(C(=O)c3ccc(OC)cc3)cnc3ccccc23)CC1 [[4-(4-ethylpiperazin-1-yl)quinolin-3-yl](4-methoxyphenyl)methanone]	< 3.52
COc1cc(C2c3c(n(Cc4ccccc4)c(=O)[nH]c3=O)N=C3CC(C)(C)CC(=O)C32)ccc1O (configuration not stated)	< 3.52
CC1CN(C(=O)CCCN2C(=O)c3ccccc3C2=O)CC(C)O1 (configuration not stated) [2-[4-(2,6-dimethylmorpholin-4-yl)-4-oxobutyl]isoindole-1,3-dione]	< 3.52
CCOC(=O)CC(=O)CSc1ccc2nnc(-c3cccc(F)c3)n2n1 [ethyl 4-[[3-(3-fluorophenyl)-[1,2,4]triazolo[4,3-b]pyridazin-6-yl]sulfanyl]-3-oxobutanoate]	< 3.52
CC1=C(C#N)C(=O)NC(=O)C1=CNc1ccc(S(=O)(=O)CCO)cc1 [(5Z)-5-[[[4-(2-hydroxyethylsulfonyl)phenyl]amino]methylidene]-4-methyl-2,6-bis(oxidanylidene)pyridine-3-carbonitrile]	< 3.52
COc1ccc(Oc2c(C)oc3c(CN(C)C)c(O)ccc3c2=O)cc1	< 3.52
CCOc1ccc2c(c1)C(=O)C(=O)N2CC1COc2ccccc2O1 (configuration not stated) [1-(2,3-dihydro-1,4-benzodioxin-3-ylmethyl)-5-ethoxy-indole-2,3-dione]	< 3.52
O=C(CCc1ccccc1)Nc1ncc([N+](=O)[O-])s1	< 3.52
CN1CCN(c2ccccc2NC(=O)c2ccc(Br)o2)CC1 [5-bromanyl-N-[2-(4-methylpiperazin-1-yl)phenyl]furan-2-carboxamide]	4.72
O=c1cc(-c2ccc(O)c(O)c2)oc2cc(O)cc(O)c12 [2-(3,4-dihydroxyphenyl)-5,7-dihydroxy-4H-chromen-4-one]	5.42
COc1ccc(C2CC(=O)C3C(=Nc4ncnn4C3c3ccccc3C)C2)cc1 (configuration not stated)	< 3.52
O=C(Oc1ccc(Cl)cc1)N1CCCCC1 [(4-chlorophenyl) piperidine-1-carboxylate]	< 3.52
CCOc1ccc(Nc2nc(N)c([N+](=O)[O-])c(NCc3ccccc3)n2)cc1 [N'-Benzyl-N-(4-ethoxy-phenyl)-5-nitro-pyrimidine-2,4,6-triamine]	< 3.52
O=C1CCCC2=Nc3nc(SCc4ccccc4)nn3C(c3cccs3)C12 (configuration not stated) [2-(phenylmethylthio)-9-thiophen-2-yl-5,6,7,9-tetrahydro-1H-[1,2,4]triazolo[5,1-b]quinazolin-8-one]	< 3.52
O=C(Nc1ccc(N2CCN(Cc3ccccc3)CC2)cc1)c1ccccc1[N+](=O)[O-] [N-[4-(4-benzyl-1-piperazinyl)phenyl]-2-nitrobenzamide]	< 3.52
O=C1CCCC2=Nc3ccccc3NC(c3cccs3)C12 (configuration not stated) [6-thiophen-2-yl-5,6,8,9,10,11-hexahydrobenzo[b][1,4]benzodiazepin-7-one]	< 3.52
Nc1nc(Nc2ccccc2)sc1C(=O)c1ccccc1 [(4-azanyl-2-phenylazanyl-1,3-thiazol-5-yl)-phenyl-methanone]	6.77
CCCc1cc(=O)oc2cc(C)cc(O)c12 [5-hydroxy-7-methyl-4-propyl-1-benzopyran-2-one]	< 3.52

The next lines start with the values.

pEC50	SMILES
< 3.52	COCCn1c(SCC(=O)NC(C)c2ccccc2)nc2ccccc21 (configuration not stated) [SMR000590006]
< 3.52	CCNc1nc(N)nc(-c2cc(Cl)ccc2OC)n1 [MLS000538218]
< 3.52	COc1cc(CN=Nc2ccc([N+](=O)[O-])cc2)ccc1OCC(=O)Nc1ccc(C)c(C)c1 [MLS000537060]
< 3.52	COc1ccc2cc(C(N)=O)c(=NNC(=O)c3ccco3)oc2c1 [SMR000236446]
4.09	COc1ccc(Nc2nc(N)nc(CSc3nnc(C)s3)n2)cc1 [MLS000527270]
< 3.52	Cn1c(=O)[nH]c(=O)c2c1nc(Br)n2Cc1ccccc1Cl [MLS000031623]
< 3.52	COc1ccccc1Nc1nc(NCc2ccco2)nc(N)c1[N+](=O)[O-] [SMR000436038]
< 3.52	CSc1nc(NCC(C)C)c2c3c(sc2n1)CN(C)CC3 [SMR000148856]
< 3.52	C=C1CSc2nc(=O)c3c4c(sc3n21)CCCC4 [MLS000108332]
< 3.52	CC(C(=O)Nc1nc2ccccc2s1)n1cc([N+](=O)[O-])cn1 (configuration not stated) [SMR000307349]
4.31	CCOC(=O)c1cnc2ccc(OCC)cc2c1N1CCN(C)CC1 [MLS000047802]
< 3.52	COc1cc(C2C(C(=O)c3cccs3)C(=O)C(=O)N2CCN2CCOCC2)ccc1OCCC(C)C (configuration not stated) [SMR000476070]
< 3.52	O=C(NNC(=O)C1CC1)c1cc2cc3ccccc3nc2s1 [MLS000763570]
4.13	CCn1c(SCC(=O)Nc2ccc(Br)cn2)nnc1C1CC1 [SMR000671057]
< 3.52	COc1ccc(-c2nn(-c3ccccc3)cc2C(=O)O)cc1OC [SMR000124387]
4.78	O=C(Nc1ccc(O)c2c(=O)cc(-c3ccccc3Cl)oc12)c1cccs1 [SMR000465219]

pEC50	SMILES
< 3.52	Cc1ccccc1CSc1nnc([C@@H]2CCCN2)o1 [MLS000333752]
< 3.52	NC(=O)c1c(NC(=O)CN2C(=O)CCC2=O)sc2c1CCCCC2 [SMR000018552]
< 3.52	CCOC(=O)C1C(=CN2CCSCC2)NC(=O)NC1c1cc(C)ccc1C (configuration not stated) [MLS000052412]
4.79	CCN1CCc2c(C#N)c(N3CCCCC3)nc(N3CCOCC3)c2C1 [MLS000071254]
< 3.52	O=c1c2[nH]c3ccccc3c2ncn1C1CCCCC1 [SMR000039546]
< 3.52	COc1ccccc1-c1c(C(F)(F)F)oc2c(CN(C)C)c(O)ccc2c1=O [MLS001206868]
< 3.52	Cc1ccc2c(c1)cc1c(O)nncn12 [MLS000551564]
< 3.52	Cc1cc(NC(=O)c2noc3c2CCc2ccccc2-3)n(-c2ccccc2)n1 [MLS000116423]
< 3.52	CC(C(=O)NCc1ccccc1)n1cc([N+](=O)[O-])cn1 (configuration not stated) [SMR000559338]
4.88	COc1ccc(C(=O)c2coc3ccc(O)cc23)cc1 [MLS001198628]
4.49	CCN1C(=O)/C(=N\NC(=O)C(O)c2ccccc2)c2ccccc21 (configuration not stated) [SMR000414657]
< 3.52	CC1CC(=O)Nc2ccc([N+](=O)[O-])cc2N1C (configuration not stated) [SMR000207335]
< 3.52	Cc1nn(CC(=O)NCCCN2CCCCC2)c(=O)c2cc(-c3ccccc3)nn12 [SMR000631197]
< 3.52	O=C(Nc1cc(-c2ccccc2)n[nH]1)c1ccccc1 [SMR000459251]
< 3.52	O=C(CSc1nnc(-c2ccncc2)o1)Oc1ccccc1 [SMR000006341]
< 3.52	COc1cccc(C2Nc3ccccc3N=C3CC(C)(C)CC(=O)C32)c1 (configuration not stated) [MLS001207292]
